Activity calls are given as the source filed them. The calls are words filed in the database; no cut-off is given here.
Experiments:
[1] = molecular target: T1, Free fatty acid receptor 4 (Homo sapiens, UniProt Q5NUL3); assay: Agonist activity at ARMS2-PK2 -tagged human GPR120 short isoform expressed in CHOK1 cells assessed as induction of beta-arrestin2 recruitment after 90 mins by luminescence assay; assay type: cell-based, CHO-K1
T1 sequence (Q5NUL3 whole entry): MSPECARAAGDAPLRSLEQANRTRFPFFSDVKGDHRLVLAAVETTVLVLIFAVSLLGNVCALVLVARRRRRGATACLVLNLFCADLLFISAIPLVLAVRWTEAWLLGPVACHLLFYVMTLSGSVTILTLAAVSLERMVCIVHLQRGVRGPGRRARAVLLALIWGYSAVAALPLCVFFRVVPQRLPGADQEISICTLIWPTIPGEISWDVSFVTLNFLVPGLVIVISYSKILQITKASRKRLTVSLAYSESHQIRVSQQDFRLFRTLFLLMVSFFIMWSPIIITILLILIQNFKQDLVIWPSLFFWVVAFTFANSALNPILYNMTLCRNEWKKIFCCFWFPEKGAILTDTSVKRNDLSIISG

[2] = molecular target: T1, Free fatty acid receptor 4; assay: Agonist activity at human GPR120 short isoform expressed in CHOK1 cells assessed as induction of IP1 accumulation after 60 mins by HTRF assay; assay type: functional, cell-based, CHO-K1
[3] = molecular target: T2, Free fatty acid receptor 4 (Mus musculus, UniProt Q7TMA4); assay: Agonist activity at mouse GPR120 expressed in U2OS cells assessed as induction of beta-arrestin2 recruitment after 90 mins by luminescence assay; assay type: cell-based
T2 sequence (Q7TMA4 whole entry): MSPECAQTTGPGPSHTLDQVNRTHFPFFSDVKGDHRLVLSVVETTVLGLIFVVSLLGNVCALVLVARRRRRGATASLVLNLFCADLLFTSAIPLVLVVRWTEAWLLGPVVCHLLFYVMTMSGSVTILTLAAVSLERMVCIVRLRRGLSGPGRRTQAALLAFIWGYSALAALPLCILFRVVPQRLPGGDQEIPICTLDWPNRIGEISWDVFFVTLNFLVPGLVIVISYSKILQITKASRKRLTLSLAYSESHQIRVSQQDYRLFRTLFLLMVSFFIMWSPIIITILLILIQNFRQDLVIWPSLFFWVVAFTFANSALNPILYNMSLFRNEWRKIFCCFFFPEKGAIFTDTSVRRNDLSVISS

[4] = molecular target: T2, Free fatty acid receptor 4; assay: Agonist activity at mouse GPR120 expressed in CHOK1 cells assessed as induction of IP1 accumulation after 60 mins by HTRF assay; assay type: functional, cell-based, CHO-K1
[5] = molecular target: T3, Free fatty acid receptor 1 (Homo sapiens, UniProt O14842); assay: Agonist activity at human GPR40 expressed in HEK293 cells assessed as induction of IP1 accumulation after 60 mins by HTRF assay; assay type: functional, cell-based
[6] = molecular target: T1, Free fatty acid receptor 4; assay: Agonist activity at human GPR120 assessed as induction of beta-arrestin recruitment
[7] = molecular target: T2, Free fatty acid receptor 4; assay: Agonist activity at mouse GPR120 assessed as induction of beta-arrestin recruitment
[8] = molecular target: T1, Free fatty acid receptor 4; assay: Agonist activity at human GPR120 assessed as induction of IP1 accumulation; assay type: functional
[9] = molecular target: T2, Free fatty acid receptor 4; assay: Agonist activity at mouse GPR120 assessed as induction of IP1 accumulation; assay type: functional
[10] = molecular target: T3, Free fatty acid receptor 1; assay: Agonist activity at human GPR40 assessed as induction of IP1 accumulation; assay type: functional
Mus musculus [11] = assay: Antidiabetic activity in diet-induced obese mouse assessed as insulin sensitivity by measuring reduction in glucose at 10 mg/kg, po qd administered daily via gavage for 14 days measured on day 14 post dose; assay type: functional, organism-based
Mus musculus [12] = assay: Antidiabetic activity in diet-induced obese mouse assessed as insulin sensitivity by measuring reduction in glucose at 10 mg/kg, po qd administered daily via gavage for 28 days measured on day 28 post dose; assay type: functional, organism-based
Mus musculus [13] = assay: Decrease in insulin levels in diet-induced obese mouse at 10 mg/kg, po qd administered daily via gavage for 14 days measured on day 14 post dose; assay type: functional, organism-based
Mus musculus [14] = assay: Decrease in insulin levels in diet-induced obese mouse at 10 mg/kg, po qd administered daily via gavage for 28 days measured on day 28 post dose; assay type: functional, organism-based
Mus musculus [15] = assay: Antidiabetic activity in diet-induced obese mouse assessed as increase in glucose infusion rate during hyperinsulinemic euglycemic clamp procedure at 10 mg/kg, po qd administered daily via gavage measured after 28 days; assay type: functional, organism-based
Mus musculus [16] = assay: Toxicity in diet-induced obese mouse assessed as change in body weight at 10 mg/kg, po qd administered daily via gavage for 28 days; assay type: organism-based; conditions: in vivo, 672 h

T3 sequence (O14842 whole entry): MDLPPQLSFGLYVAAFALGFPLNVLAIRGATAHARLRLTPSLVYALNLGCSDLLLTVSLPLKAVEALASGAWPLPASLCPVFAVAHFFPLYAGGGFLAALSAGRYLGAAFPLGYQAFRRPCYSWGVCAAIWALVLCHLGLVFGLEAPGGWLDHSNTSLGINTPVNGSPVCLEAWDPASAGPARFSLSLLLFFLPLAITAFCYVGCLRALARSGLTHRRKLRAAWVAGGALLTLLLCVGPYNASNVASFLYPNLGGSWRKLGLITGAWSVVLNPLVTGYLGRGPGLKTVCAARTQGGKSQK

Compound | EC50 [1] | EC50 [2] | EC50 [3] | EC50 [4] | EC50 [5] | further results
CC1(C)Cc2cc(Cl)cc(N3CCC4(CCC(CC(=O)O)CC4)CC3)c2O1 | 3100 nM | 3300 nM | 4000 nM | 670 nM | > 10000 nM | –
O=C(O)CC1CCC2(CC1)CCN(c1ccccc1Cl)CC2 | > 10000 nM | > 10000 nM | > 10000 nM | > 10000 nM | > 10000 nM | –
O=C(O)CC1CCC2(CC1)CCN(c1cc(F)cc(Cl)c1F)CC2 | 1400 nM | 420 nM | 1100 nM | 190 nM | 8100 nM | –
O=C(O)c1ccc(C2CCN(c3cc(OC(F)(F)F)ccc3F)CC2)cc1 | – | – | – | – | – | EC50 [6]: > 10000 nM; EC50 [7]: > 10000 nM; EC50 [8]: > 10000 nM; EC50 [9]: > 10000 nM; EC50 [10]: > 10000 nM
Cc1cc(-c2cc(OC(F)(F)F)ccc2Cl)cc(C)c1OCCCC(=O)O | – | – | – | – | – | EC50 [6]: 100 nM; EC50 [7]: 35 nM; EC50 [10]: > 10000 nM
O=C(O)CC1CCC2(CC1)CCN(c1cc(C(F)(F)F)ccn1)CC2 | 9200 nM | 3100 nM | 4200 nM | 1300 nM | > 10000 nM | –
COc1ccc(Cl)c(N2CCC3(CCC(CC(=O)O)CC3)CC2)c1 | 2500 nM | 2100 nM | 5300 nM | 570 nM | > 10000 nM | –
CCc1ccc(CCOc2ccc(CC3SC(=O)NC3=O)cc2)nc1 (stereo unspecified) [PIOGLITAZONE] | – | – | – | – | – | Activity (Mus musculus [11]): Active; Activity (Mus musculus [12]): Active; Activity (Mus musculus [13]): Active; Activity (Mus musculus [14]): Active; Activity (Mus musculus [15]): Active; Activity (Mus musculus [16]): Toxic
O=C(O)CCc1cc2cc(-c3cc(OC(F)(F)F)ccc3F)ccc2o1 | – | – | – | – | – | EC50 [6]: 16 nM; EC50 [7]: 21 nM
O=C(O)CC1CCC2(CC1)CCN(c1cc(C(F)(F)F)ccc1F)CC2 | 2200 nM | 1200 nM | 3000 nM | 590 nM | > 10000 nM | –
O=C(O)CCC1CCC2(CC1)CCN(c1cc(OC(F)(F)F)ccc1Cl)CC2 | 1000 nM | 2700 nM | – | – | – | –
O=C(O)C1CC12CCC1(CCN(c3cc(OC(F)(F)F)ccc3Cl)CC1)CC2 (stereo unspecified) | 3900 nM | 2200 nM | – | – | – | –
O=C(O)C1CCN(c2ccc(-c3cc(OC(F)(F)F)ccc3F)cc2)CC1 | – | – | – | – | – | EC50 [6]: 1600 nM; EC50 [7]: 320 nM; EC50 [8]: 300 nM; EC50 [9]: 89 nM; EC50 [10]: > 10000 nM
CC1CC(CC(=O)O)CCC12CCN(c1cc(OC(F)(F)F)ccc1Cl)CC2 (stereo unspecified) | 580 nM | 440 nM | – | – | – | –
O=C(O)C1CCC(C2CCN(c3cc(OC(F)(F)F)ccc3F)CC2)CC1 (stereo unspecified) | – | – | – | – | – | EC50 [7]: 990 nM; EC50 [8]: 700 nM; EC50 [9]: 1490 nM; EC50 [10]: > 10000 nM
N#Cc1cc(SC(F)(F)F)cc(N2CCC3(CCC(CC(=O)O)CC3)CC2)c1 | 480 nM | 360 nM | 140 nM | 44 nM | > 10000 nM | –
OCCC1CCC2(CC1)CCN(c1cc(OC(F)(F)F)ccc1Cl)CC2 | 330 nM | 4300 nM | – | – | – | –
O=C(O)CC1CCC2(CC1)CCN(c1cc(Cl)cc(Cl)c1)CC2 | 190 nM | 220 nM | 120 nM | 51 nM | 6300 nM | –

Now from value to molecule, other results behind:

EC50 [1] | EC50 [2] | EC50 [3] | EC50 [4] | EC50 [5] | Compound | further results
2100 nM | 5700 nM | – | – | – | O=C(O)CC1CCC2(CCN(c3cc(OC(F)(F)F)ccc3Cl)CC2)OC1 (stereo unspecified) | –
4400 nM | 3500 nM | – | – | – | CC(C(=O)O)C1CCC2(CC1)CCN(c1cc(OC(F)(F)F)ccc1Cl)CC2 (stereo unspecified) | –
> 10000 nM | > 10000 nM | – | – | – | O=C(O)CN1CCC2(CC1)CCN(c1cc(OC(F)(F)F)ccc1F)CC2 | –
700 nM | 130 nM | 470 nM | 49 nM | > 10000 nM | O=C(O)CC1CCC2(CC1)CCN(c1cc(OC(F)(F)F)ccc1F)CC2 | –
2700 nM | 4100 nM | – | – | – | CC1CC2(CCC1CC(=O)O)CCN(c1cc(OC(F)(F)F)ccc1Cl)CC2 (stereo unspecified) | –
370 nM | 200 nM | 290 nM | 66 nM | 2500 nM | N#Cc1ccc(OC(F)(F)F)cc1N1CCC2(CCC(CC(=O)O)CC2)CC1 | –

— ChEMBL document CHEMBL3872283, “Design, Synthesis, and Evaluation of Novel and Selective G-protein Coupled Receptor 120 (GPR120) Spirocyclic Agonists” (ACS Med Chem Lett, 2017)
